The data set deals with subjects with idiopathic pulmonary fibrosis (IPF). In words: Phase II randomized, double-blind, placebo-controlled IPF clinical study: monitoring of adverse events (SAEs, TEAEs). The format is in vivo, human. Particulars: for Subjects with Serious TEAE / Subjects with TEAE leading to treatment discontinuation (LD): 100 mg orally once daily, 26 weeks. An excerpt:
The study of the current example was a randomized, double-blind, parallel group, placebo-controlled, multicenter, Phase II study to evaluate the efficacy, safety and tolerability of Compound 1 in subjects with idiopathic pulmonary fibrosis (IPF). The primary objective of this study was to evaluate the efficacy of Compound 1 treatment in subjects with IPF on pulmonary function as evaluated by FVC compared to placebo over 26 weeks.
The study provided for 2 types of interventions: • Drug: Compound 1—100 mg administered orally once daily as 2 capsules of 50 mg with or without food • Drug: Compound 1 placebo—administered orally once daily as 2 capsules with or without food
Study participants were randomized over 2 study arms: • 1. Experimental: Compound 1: Compound 1 100 mg, for 26 weeks • 2. Placebo Comparator: Placebo: Compound 1 placebo for 26 weeks
To be eligible, the subjects met the following criteria: • Males or females of non-child-bearing potential, aged ≥40 years. • A diagnosis of IPF within 5 years prior to the screening visit as per American Thoracic Society (ATS)/European Respiratory Society (ERS)/Japanese Respiratory Society (JRS)/Latin American Thoracic Association (ALAT) guidelines. • Meeting all of the following criteria at screening and during the screening period: • FVC≥50% predicted of normal • Disease progression in the last 9 months prior to the screening period and at screening, defined as at least one prescreening FVC value and screening value with a decline of FVC (% predicted or mL), at the investigator's discretion • Diffusing capacity for the lungs for carbon monoxide (DLCO)≥30% predicted of normal (corrected for hemoglobin) • Ratio of forced expiratory volume in one second (FEV1) to FVC≥0.70 • In a stable condition and suitable for study participation based on the results of a medical history, physical examination, vital signs, 12-lead ECG, and laboratory evaluation. Stable condition is based on the clinical judgment of the investigator, co-morbidities should be treated according to the local applicable guidelines. Concomitant medication for comorbidities should be stabilized from 4 weeks before screening and during the screening period (stable defined as no change of dose or regimen). • Estimated minimum life expectancy of 12 months for non-IPF related disease in the opinion of the investigator. • Male subjects with female partners of child bearing potential are willing to comply with the contraceptive methods described in the respective protocol prior to the first dose of the IMP, during the clinical study, and for at least 12 weeks after the last dose of the IMP. • Able to walk at least 150 meters during the 6MWT at screening; without having a contraindication to perform the 6MWT. • Able to understand the importance of adherence, and willing to comply to study treatment, study procedures and requirements as per study protocol, including the concomitant medication restrictions. […]

Where [1] appears, read: Summary All (N = 68, both arms).
[2] abbreviates: background therapy Nintedanib (N = 24, both arms).
Setting [3] is: background therapy None (N = 25, both arms).
Where [4] appears, read: background therapy Pirfenidone (N = 19, both arms).

Consider `O=c1nc(OC[C@@H]2COCCO2)cc2n1CCc1cc(C#CC3CC3)ccc1-2` [GLPG1205, 9-Cyclopropylethynyl-2-((S)-1-[1,4]dioxan-2-ylmethoxy)-6,7-dihydro-pyrimido[6,1-a]iso quinolin-4-one], for which the “Subjects with Serious TEAE” value amounted to 9 n under setting [1], 7 n under setting [2], 2 n under setting [3] and 0 n under setting [4]. In addition, the “Subjects with TEAE leading to treatment discontinuation (LD)” value runs as follows: under setting [1], 10 n; under setting [2], 6 n; under setting [3], 2 n; under setting [4], 2 n. Besides, the “serious adverse events (SAEs) and/or treatment emergent adverse events (TEAEs)” value (administered in combination with or alongside nintedanib) is recorded as “increased”.

(Values after patent US20230405007A1, “COMPOUND FOR USE IN AND METHODS OF TREATMENT OF FIBROTIC DISEASES” (Galapagos NV, priority 2020, published 2023).)
